Test results published in ChEMBL document CHEMBL4732090, “Preparation of new 1,3-dibenzyl tetrahydropyridinylidene ammonium salts and their antimicrobial and anticellular activities” (Eur J Med Chem, 2021).
pIC50: −log10 of the molar value.

Test system: Plasmodium falciparum
Assay: Antiplasmodial activity against Plasmodium falciparum NF54 erythrocytic stages assessed as reduction in [3H]hypoxanthine incorporation measured after 48 hrs by liquid scintillation counting method
Format: functional, organism-based
Settings: not given

Compound	pIC50
CC1(C)C(Cc2ccc(C#N)cc2)C(=[N+]2CCCC2)C=CN1Cc1ccccc1 (stereo unspecified)	7.77
CC1(C)C(Cc2ccccc2)C(=[N+]2CCCC2)C=CN1Cc1ccccc1 (racemic)	7.49
CC1(C)C(Cc2ccccc2)C(=[N+]2CCCCC2)C=CN1Cc1ccccc1 (racemic)	7.82
CC(C)c1ccc(CC2C(=[N+]3CCCC3)C=CN(Cc3ccccc3)C2(C)C)cc1 (racemic)	7.41
CC1(C)C(Cc2ccc(C(F)(F)F)cc2)C(=[N+]2CCCC2)C=CN1Cc1ccc(C(F)(F)F)cc1 (racemic)	8.08
CC1(C)C(Cc2ccccc2C(F)(F)F)C(=[N+]2CCCC2)C=CN1Cc1ccccc1 (racemic)	7.07
CC1(C)C(Cc2ccc(Cl)cc2)C(=[N+]2CCCCC2)C=CN1Cc1ccc(Cl)cc1 (racemic)	8.42

Test system: Plasmodium falciparum
Assay: Antiplasmodial activity against chloroquine and pyrimethamine resistant Plasmodium falciparum K1 strain
Format: functional, organism-based
Settings: not given

Compound	pIC50
CC1(C)C(Cc2ccc(C#N)cc2)C(=[N+]2CCCC2)C=CN1Cc1ccccc1 (stereo unspecified)	6.92
CC1(C)C(Cc2ccccc2)C(=[N+]2CCCC2)C=CN1Cc1ccccc1 (racemic)	7.26
CC1(C)C(Cc2ccccc2)C(=[N+]2CCCCC2)C=CN1Cc1ccccc1 (racemic)	7.62
CC1(C)C(Cc2ccc(C(F)(F)F)cc2)C(=[N+]2CCCC2)C=CN1Cc1ccc(C(F)(F)F)cc1 (racemic)	8.51
CC1(C)C(Cc2ccc(Cl)cc2)C(=[N+]2CCCCC2)C=CN1Cc1ccc(Cl)cc1 (racemic)	9.42

Test system: not listed separately
Assay: Selectivity index, ratio of IC50 for rat L6 cells to IC50 for Plasmodium falciparum NF54
Format: toxicity
Settings: read-out: Ratio IC50

Compound	selectivity ratio
CC1(C)C(Cc2ccc(C#N)cc2)C(=[N+]2CCCC2)C=CN1Cc1ccccc1 (stereo unspecified)	> 12700
CC1(C)C(Cc2ccccc2)C(=[N+]2CCCC2)C=CN1Cc1ccccc1 (racemic)	1530
CC1(C)C(Cc2ccccc2)C(=[N+]2CCCCC2)C=CN1Cc1ccccc1 (racemic)	1640
CC(C)c1ccc(CC2C(=[N+]3CCCC3)C=CN(Cc3ccccc3)C2(C)C)cc1 (racemic)	64.4
CC1(C)C(Cc2ccc(C(F)(F)F)cc2)C(=[N+]2CCCC2)C=CN1Cc1ccc(C(F)(F)F)cc1 (racemic)	3180
CC1(C)C(Cc2ccccc2C(F)(F)F)C(=[N+]2CCCC2)C=CN1Cc1ccccc1 (racemic)	912
CC1(C)C(Cc2ccc(Cl)cc2)C(=[N+]2CCCCC2)C=CN1Cc1ccc(Cl)cc1 (racemic)	2920

Test system: not listed separately
Assay: Selectivity index, ratio of IC50 for rat L6 cells to IC50 for chloroquine and pyrimethamine resistant Plasmodium falciparum K1
Format: toxicity
Settings: read-out: Ratio IC50

Compound	selectivity ratio
CC1(C)C(Cc2ccc(C#N)cc2)C(=[N+]2CCCC2)C=CN1Cc1ccccc1 (stereo unspecified)	> 1790
CC1(C)C(Cc2ccccc2)C(=[N+]2CCCC2)C=CN1Cc1ccccc1 (racemic)	888
CC1(C)C(Cc2ccccc2)C(=[N+]2CCCCC2)C=CN1Cc1ccccc1 (racemic)	1024
CC1(C)C(Cc2ccc(C(F)(F)F)cc2)C(=[N+]2CCCC2)C=CN1Cc1ccc(C(F)(F)F)cc1 (racemic)	8520
CC1(C)C(Cc2ccc(Cl)cc2)C(=[N+]2CCCCC2)C=CN1Cc1ccc(Cl)cc1 (racemic)	29200

Test system: Trypanosoma brucei rhodesiense
Assay: Trypanocidal activity against Trypanosoma brucei rhodesiense STIB900 incubated for 70 hrs by Alamar blue assay
Format: functional, organism-based
Settings: STIB900, 70 h

Compound	pIC50
CC1(C)C(Cc2ccc(C#N)cc2)C(=[N+]2CCCC2)C=CN1Cc1ccccc1 (stereo unspecified)	4.96
CC1(C)C(Cc2ccccc2)C(=[N+]2CCCC2)C=CN1Cc1ccccc1 (racemic)	6.89
CC1(C)C(Cc2ccccc2)C(=[N+]2CCCCC2)C=CN1Cc1ccccc1 (racemic)	7.36
CC(C)c1ccc(CC2C(=[N+]3CCCC3)C=CN(Cc3ccccc3)C2(C)C)cc1 (racemic)	7.38
CC1(C)C(Cc2ccc(C(F)(F)F)cc2)C(=[N+]2CCCC2)C=CN1Cc1ccc(C(F)(F)F)cc1 (racemic)	6.38
CC1(C)C(Cc2ccccc2C(F)(F)F)C(=[N+]2CCCC2)C=CN1Cc1ccccc1 (racemic)	7.00
CC1(C)C(Cc2ccc(Cl)cc2)C(=[N+]2CCCCC2)C=CN1Cc1ccc(Cl)cc1 (racemic)	6.85

Test system: not listed separately
Assay: Selectivity index, ratio of IC50 for rat L6 cells to IC50 for Trypanosoma brucei rhodesiense STIB900
Format: toxicity
Settings: read-out: Ratio IC50

Compound	selectivity ratio
CC1(C)C(Cc2ccc(C#N)cc2)C(=[N+]2CCCC2)C=CN1Cc1ccccc1 (stereo unspecified)	> 19.6
CC1(C)C(Cc2ccccc2)C(=[N+]2CCCC2)C=CN1Cc1ccccc1 (racemic)	376
CC1(C)C(Cc2ccccc2)C(=[N+]2CCCCC2)C=CN1Cc1ccccc1 (racemic)	558
CC(C)c1ccc(CC2C(=[N+]3CCCC3)C=CN(Cc3ccccc3)C2(C)C)cc1 (racemic)	59.8
CC1(C)C(Cc2ccc(C(F)(F)F)cc2)C(=[N+]2CCCC2)C=CN1Cc1ccc(C(F)(F)F)cc1 (racemic)	62.9
CC1(C)C(Cc2ccccc2C(F)(F)F)C(=[N+]2CCCC2)C=CN1Cc1ccccc1 (racemic)	776
CC1(C)C(Cc2ccc(Cl)cc2)C(=[N+]2CCCCC2)C=CN1Cc1ccc(Cl)cc1 (racemic)	79.3

Test system: L6
Assay: Cytotoxicity against rat L6 cells after 70 hrs by Alamar blue assay
Format: cell-based
Settings: L6, 70 h, read-out: IC50

Compound	pIC50
CC1(C)C(Cc2ccc(C#N)cc2)C(=[N+]2CCCC2)C=CN1Cc1ccccc1 (stereo unspecified)	< 3.67
CC1(C)C(Cc2ccccc2)C(=[N+]2CCCC2)C=CN1Cc1ccccc1 (racemic)	4.31
CC1(C)C(Cc2ccccc2)C(=[N+]2CCCCC2)C=CN1Cc1ccccc1 (racemic)	4.61
CC(C)c1ccc(CC2C(=[N+]3CCCC3)C=CN(Cc3ccccc3)C2(C)C)cc1 (racemic)	5.60
CC1(C)C(Cc2ccc(C(F)(F)F)cc2)C(=[N+]2CCCC2)C=CN1Cc1ccc(C(F)(F)F)cc1 (racemic)	4.58
CC1(C)C(Cc2ccccc2C(F)(F)F)C(=[N+]2CCCC2)C=CN1Cc1ccccc1 (racemic)	4.11
CC1(C)C(Cc2ccc(Cl)cc2)C(=[N+]2CCCCC2)C=CN1Cc1ccc(Cl)cc1 (racemic)	4.95

Test system: HCT-116
Assay: Cytotoxicity against human HCT-116 cells assessed as inhibition of cell growth at 50 uM after 72 hrs by XTT assay relative to control
Format: functional
Settings: not given

Compound	inhibition at 50 µM [%]
CC(C)c1ccc(CC2C(=[N+]3CCCC3)C=CN(Cc3ccccc3)C2(C)C)cc1 (racemic)	100
CC1(C)C(Cc2ccc(C(F)(F)F)cc2)C(=[N+]2CCCC2)C=CN1Cc1ccc(C(F)(F)F)cc1 (racemic)	100
CC1(C)C(Cc2ccc(Cl)cc2)C(=[N+]2CCCCC2)C=CN1Cc1ccc(Cl)cc1 (racemic)	100

Test system: U-251
Assay: Cytotoxicity against human U-251 cells assessed as inhibition of cell growth at 50 uM after 72 hrs by XTT assay relative to control
Format: functional
Settings: not given

Compound	inhibition at 50 µM [%]
CC(C)c1ccc(CC2C(=[N+]3CCCC3)C=CN(Cc3ccccc3)C2(C)C)cc1 (racemic)	100
CC1(C)C(Cc2ccc(C(F)(F)F)cc2)C(=[N+]2CCCC2)C=CN1Cc1ccc(C(F)(F)F)cc1 (racemic)	100
CC1(C)C(Cc2ccc(Cl)cc2)C(=[N+]2CCCCC2)C=CN1Cc1ccc(Cl)cc1 (racemic)	100

Test system: Staphylococcus aureus
Assay: Antibacterial activity against Staphylococcus aureus ATCC 29213 assessed as diameter of inhibition zone at 10 mg/ml by disk diffusion assay
Format: functional
Settings: read-out: DIZ

Compound	zone of inhibition at 10000 µg/mL [mm]
CC1(C)C(Cc2ccc(C#N)cc2)C(=[N+]2CCCC2)C=CN1Cc1ccccc1 (stereo unspecified)	14
CC1(C)C(Cc2ccccc2)C(=[N+]2CCCC2)C=CN1Cc1ccccc1 (racemic)	21
CC1(C)C(Cc2ccccc2)C(=[N+]2CCCCC2)C=CN1Cc1ccccc1 (racemic)	22
CC(C)c1ccc(CC2C(=[N+]3CCCC3)C=CN(Cc3ccccc3)C2(C)C)cc1 (racemic)	25
CC1(C)C(Cc2ccc(C(F)(F)F)cc2)C(=[N+]2CCCC2)C=CN1Cc1ccc(C(F)(F)F)cc1 (racemic)	22
CC1(C)C(Cc2ccccc2C(F)(F)F)C(=[N+]2CCCC2)C=CN1Cc1ccccc1 (racemic)	23
CC1(C)C(Cc2ccc(Cl)cc2)C(=[N+]2CCCCC2)C=CN1Cc1ccc(Cl)cc1 (racemic)	22

Test system: Staphylococcus epidermidis
Assay: Antibacterial activity against Staphylococcus epidermis ATCC 12228 assessed as diameter of inhibition zone at 10 mg/ml by disk diffusion assay
Format: functional
Settings: read-out: DIZ

Compound	zone of inhibition at 10000 µg/mL [mm]
CC1(C)C(Cc2ccc(C#N)cc2)C(=[N+]2CCCC2)C=CN1Cc1ccccc1 (stereo unspecified)	12
CC1(C)C(Cc2ccccc2)C(=[N+]2CCCC2)C=CN1Cc1ccccc1 (racemic)	25
CC1(C)C(Cc2ccccc2)C(=[N+]2CCCCC2)C=CN1Cc1ccccc1 (racemic)	28
CC(C)c1ccc(CC2C(=[N+]3CCCC3)C=CN(Cc3ccccc3)C2(C)C)cc1 (racemic)	29
CC1(C)C(Cc2ccc(C(F)(F)F)cc2)C(=[N+]2CCCC2)C=CN1Cc1ccc(C(F)(F)F)cc1 (racemic)	31
CC1(C)C(Cc2ccccc2C(F)(F)F)C(=[N+]2CCCC2)C=CN1Cc1ccccc1 (racemic)	22
CC1(C)C(Cc2ccc(Cl)cc2)C(=[N+]2CCCCC2)C=CN1Cc1ccc(Cl)cc1 (racemic)	28

Test system: Escherichia coli
Assay: Antibacterial activity against Escherichia coli ATCC 25922 assessed as diameter of inhibition zone at 10 mg/ml by disk diffusion assay
Format: functional
Settings: read-out: DIZ

Compound	zone of inhibition at 10000 µg/mL [mm]
CC1(C)C(Cc2ccc(C#N)cc2)C(=[N+]2CCCC2)C=CN1Cc1ccccc1 (stereo unspecified)	8
CC1(C)C(Cc2ccccc2)C(=[N+]2CCCC2)C=CN1Cc1ccccc1 (racemic)	12
CC1(C)C(Cc2ccccc2)C(=[N+]2CCCCC2)C=CN1Cc1ccccc1 (racemic)	10
CC(C)c1ccc(CC2C(=[N+]3CCCC3)C=CN(Cc3ccccc3)C2(C)C)cc1 (racemic)	10
CC1(C)C(Cc2ccc(C(F)(F)F)cc2)C(=[N+]2CCCC2)C=CN1Cc1ccc(C(F)(F)F)cc1 (racemic)	15
CC1(C)C(Cc2ccccc2C(F)(F)F)C(=[N+]2CCCC2)C=CN1Cc1ccccc1 (racemic)	13
CC1(C)C(Cc2ccc(Cl)cc2)C(=[N+]2CCCCC2)C=CN1Cc1ccc(Cl)cc1 (racemic)	14

Test system: Pseudomonas aeruginosa
Assay: Antibacterial activity against Pseudomonas aeruginosa ATCC 27853 assessed as diameter of inhibition zone at 10 mg/ml by disk diffusion assay
Format: functional
Settings: read-out: DIZ

Compound	zone of inhibition at 10000 µg/mL [mm]
CC1(C)C(Cc2ccc(C#N)cc2)C(=[N+]2CCCC2)C=CN1Cc1ccccc1 (stereo unspecified)	5
CC1(C)C(Cc2ccccc2)C(=[N+]2CCCC2)C=CN1Cc1ccccc1 (racemic)	0
CC1(C)C(Cc2ccccc2)C(=[N+]2CCCCC2)C=CN1Cc1ccccc1 (racemic)	0
CC(C)c1ccc(CC2C(=[N+]3CCCC3)C=CN(Cc3ccccc3)C2(C)C)cc1 (racemic)	6
CC1(C)C(Cc2ccc(C(F)(F)F)cc2)C(=[N+]2CCCC2)C=CN1Cc1ccc(C(F)(F)F)cc1 (racemic)	7
CC1(C)C(Cc2ccccc2C(F)(F)F)C(=[N+]2CCCC2)C=CN1Cc1ccccc1 (racemic)	0
CC1(C)C(Cc2ccc(Cl)cc2)C(=[N+]2CCCCC2)C=CN1Cc1ccc(Cl)cc1 (racemic)	7

Test system: Candida albicans
Assay: Antifungal activity against Candida albicans ATCC 90028 assessed as diameter of inhibition zone at 10 mg/ml by disk diffusion assay
Format: functional
Settings: read-out: DIZ

Compound	zone of inhibition at 10000 µg/mL [mm]
CC1(C)C(Cc2ccc(C#N)cc2)C(=[N+]2CCCC2)C=CN1Cc1ccccc1 (stereo unspecified)	0
CC1(C)C(Cc2ccccc2)C(=[N+]2CCCC2)C=CN1Cc1ccccc1 (racemic)	0
CC1(C)C(Cc2ccccc2)C(=[N+]2CCCCC2)C=CN1Cc1ccccc1 (racemic)	0
CC(C)c1ccc(CC2C(=[N+]3CCCC3)C=CN(Cc3ccccc3)C2(C)C)cc1 (racemic)	21
CC1(C)C(Cc2ccc(C(F)(F)F)cc2)C(=[N+]2CCCC2)C=CN1Cc1ccc(C(F)(F)F)cc1 (racemic)	25
CC1(C)C(Cc2ccccc2C(F)(F)F)C(=[N+]2CCCC2)C=CN1Cc1ccccc1 (racemic)	10
CC1(C)C(Cc2ccc(Cl)cc2)C(=[N+]2CCCCC2)C=CN1Cc1ccc(Cl)cc1 (racemic)	26
